Patent publication US11344635B2, “Compounds for use as iron (III) MRI contrast agents containing anionic pendents and ancillary groups” (The Research Foundation for The State University of New York, priority 2018, dated 2022)
One block for each molecule: values may come before it.

Experiments:
[1] = Log P octanol/water partition coefficient; assay type: physicochemical
[2] = Effective magnetic moment by Evans method; assay type: physicochemical; settings: aqueous solution
Experimental: Magnetic moments. Samples for studies of magnetic moment by using the Evans method were prepared using a coaxial NMR insert which contained the diamagnetic standard of 5% t-butanol in D2O. The outer 5 mm NMR tube contained 5 mM paramagnetic complex with fixed concentrations; 4 mM, 8 mM, 40 mM, and 70 mM in presence of 5% t-butanol. The effective magnetic moment (μeff, BM) was calculated by using a modified Evans method for small molecules at 298 K (T).

[3] = Phantom (in vitro) MR imaging: T1 and T2 relaxivity; assay type: physicochemical; settings: for r1 / r1 with HSA: 37° C.
Experimental: Preparation of Samples for Phantom MR Imaging: Samples for phantom imaging experiments contained 50-500 μM complex, 20 mM HEPES and 100 mM NaCl. For samples containing Human Serum Albumin (HSA), 35 mg of HSA was added to these solutions. The pH of all solutions was adjusted to 7.0.
Phantom (in vitro) imaging at 4.7 T. MRI acquisitions were performed using a General Electric 4.7 T/33 cm horizontal bore magnet (GE NMR instruments, Fremont, Calif.) incorporating AVANCE digital electronics (Bruker BioSpec platform with ParaVision v 3.0.2 acquisition software, Bruker Medical, Billerica, Mass.). […] T1 relaxation rates (r1) were acquired utilizing a saturation recovery, spin-echo (SE) sequence with a fixed echo time (TE), 10 ms and repetition times (TR) ranging from 75 to 8000 ms. Signal intensities at each repetition time were sampled by taking the mean intensity within regions of interest (ROI's) using commercially available image processing software (Analyze 7.0, AnalyzeDirect, Overland, Kans.), and r1 and SMAX were calculated by nonlinear fitting of the equation using Matlab's Curve Fitting Toolbox (Matlab 7.0, MathWorks Inc., Natick, Mass.). The T1 relaxivity for each complex was then determined by obtaining the slope of the compound's molar concentration vs r1 via linear regression fitting of the data. Similarly, T2 relaxation rates (R2) were acquired using a multiecho, Carr-Purcell-Meiboom Gill (CPMG) SE sequence with a fixed TR of 2500 ms and TE times ranging from 15 to 300 ms, NEX) 2. R2 and SMAX were calculated as described above using the equation As before, the T2 relaxivity was determined by obtaining the slope of concentration vs r2 via linear regression fitting of the data.
Relaxivity values for Fe(TASO) with and without HSA measured at 4.7 T and 9.4 T, pH 7.2 and 37° C. compared to Gd(DTPA).

[4] = versus NHE; cited from earlier work
[5] = Benzoate oxidation in the presence of peroxide and ascorbate (ROS assay); settings: 50 μM complex, 50 μM H2O2, 50 μM ascorbate, pH 7.2
Experimental: Benzoate oxidation with 50 μM complex, 50 μM H2O2 and 50 μM ascorbate at pH 7.2. [Fe(EDTA)]^− oxidation is set at 100%.
It is desirable that the Fe(III) complex remain in the trivalent oxidation state and not be reduced by peroxide, superoxide, ascorbate or by glutathione at concentrations present in the extracellular medium of cells such as, for example, mammalian cells (e.g., human cells). Normally, a redox potential more negative than zero mV (<0 mV) versus NHE is sufficient. If the complex were to be reduced to Fe(II) and the Fe(II) complex and the complex has a positive redox potential versus NHE, reactive oxygen species may be produced. For example, [Fe(EDTA)]− has a redox potential of approximately 300 mV and produces ROS as shown by the assay in FIG. 7.

[6] = neutral pH, HEPES buffer, 4.7 Tesla MRI scanner
[7] = with human serum albumin, neutral pH, HEPES buffer, 4.7 Tesla
[8] = 4.7 T, pH 7.2, 37° C., without HSA

- Log P octanol/water [1]: −2.02±0.30
- effective magnetic moment μeff [2]: 5.85±0.14 BM
Compound: O=P([O-])(O)CN1CCN(CP(=O)([O-])O)CCN(CP(=O)([O-])O)CC1.[Fe+3] [Fe(NOTP)]
- r1 ([3]; FIG. 11, 4.7 Tesla): 0.66 ± 0.01 mM⁻¹ s⁻¹
- r1 with HSA ([3]; FIG. 11, with HSA, 4.7 Tesla): 1.04 ± 0.06 mM⁻¹ s⁻¹
- r1 [3, 6]: 0.66 mM⁻¹ s⁻¹
- r1 with HSA [3, 7]: 1.0 mM⁻¹ s⁻¹

Compound: O=P([O-])(CN1CCN(CP(=O)([O-])c2ccccc2)CCN(CP(=O)([O-])c2ccccc2)CC1)c1ccccc1.[Fe+3] [Fe(TRAP-Ph)]
- r1 [3, 6]: 2.9 mM⁻¹ s⁻¹
- r1 with HSA [3, 7]: 3.5 mM⁻¹ s⁻¹

Compound: CNC[C@H](O)[C@@H](O)[C@H](O)[C@H](O)CO.CNC[C@H](O)[C@@H](O)[C@H](O)[C@H](O)CO.O=C([O-])CN(CCN(CC(=O)[O-])CC(=O)O)CCN(CC(=O)[O-])CC(=O)O.[Gd+3] [Gd(DTPA), gadopentetate dimeglumine, reference compound]
- r1 4.7 T [3, 8]: 3.1 ± 0.31 mM⁻¹ s⁻¹
- r2 4.7 T [3, 8]: 3.9 ± 0.39 mM⁻¹ s⁻¹
- r1 in HSA 4.7 T ([3]; in HSA, 4.7 T, pH 7.2, 37° C.): 3.2 ± 0.32 mM⁻¹ s⁻¹
- r2 in HSA 4.7 T ([3]; in HSA, 4.7 T, pH 7.2, 37° C.): 4.0 ± 0.40 mM⁻¹ s⁻¹

- Benzoate oxidation / ROS production (in words) [5]: produces ROS
- Benzoate oxidation relative to [Fe(EDTA)]− ([5]; reference set at 100%): 100%
Compound: O=C([O-])CN(CCN(CC(=O)[O-])CC(=O)[O-])CC(=O)[O-].[Fe+3] [[Fe(EDTA)]^−]
- redox potential [4]: approximately 300 mV
